According to patent US20190192517A1, “TREATMENT OF SQUAMOUS CELL CARCINOMAS WITH INHIBITORS OF ERK” (Kura Oncology, Inc., priority 2016, published 2019):

Tests used:
[1] = system: LU1868 primary human NSCLC tissues; assay: Patient-derived xenograft model of squamous NSCLC: LU1868; format: in vivo, human (in BALB/C nude mice); settings: daily and Q2D dosing schedules
Method: (§1) Example 1: Efficacy studies in patient-derived xenograft models of squamous NSCLC. Tumor fragments (2-4 mm in diameter) from stock mice inoculated with LU1868 or LU0009 primary human NSCLC tissues were inoculated subcutaneously into BALB/C nude mice. The mice were stratified into groups when the average tumor size reached about 200 mm^3. […] Tumor volumes were measured twice weekly in two dimensions using a caliper, with volume expressed in mm^3 (mean+/−SEM) using the formula […], where a and b are the long and short diameters of the tumor, respectively.
(§2) Responses were classified as “tumor stasis” if tumors grew ≤10% during the dosing period. Many SCC patient-derived xenograft models retain comorbid properties of the original tumors from which they were derived, such as induction of cachexia and spontaneous ulceration, that negatively impact the physiology of the host animal and reduce tolerability to exogenous agents, such as therapeutic drugs. […] Dosing holidays were necessary during periods when the mouse had lost ≥10% of body weight until the weight of the mouse returned to baseline. […] Where TGI was 70-85% and no doses were missed, activity was classified as “borderline”, and any TGI levels below 70% were classified as “resistant”.

[2] = system: LU0009 primary human NSCLC tissues; assay: Patient-derived xenograft model of squamous NSCLC: LU0009; format: in vivo, human (in BALB/C nude mice); settings: Q2D or 2QW schedules
Method: as §1, §2

[3] = system: ES0191 primary human ESCC tissues; assay: Patient-derived xenograft model of ESCC: ES0191; format: in vivo, human (in BALB/C nude mice); settings: weekly schedule
Method: (§3) Example 2: Efficacy studies in patient-derived xenograft models of ESCC. The general procedure outline in Example 1 was followed. […] Gene copy number and gene expression were assessed as described in Example 1.

[4] = system: ES0215 primary human ESCC tissues; assay: Patient-derived xenograft model of ESCC: ES0215; format: in vivo, human (in BALB/C nude mice); settings: Q2D or QW schedules
Method: as §3

[5] = system: HN0635 primary human HNSCC tissues; assay: Patient-derived xenograft model of HNSCC: HN0635; format: in vivo, human (in BALB/C nude mice); settings: Q2D or QW schedules
Method: (§4) Example 3: Efficacy studies in patient-derived xenograft models of HNSCC. The general procedure outline in Example 1 was followed. […] Gene copy number and gene expression were assessed as described in Example 1.

[6] = system: HN2221 primary human HNSCC tissues; assay: Patient-derived xenograft model of HNSCC: HN2221; format: in vivo, human (in BALB/C nude mice); settings: weekly dosing
Method: as §4

[7] = system: HN1391 primary human HNSCC tissues; assay: Patient-derived xenograft model of HNSCC: HN1391; format: in vivo, human (in BALB/C nude mice)
Method: Example 5: Efficacy studies in patient-derived xenograft modes of HNSCC. The general procedure outline in Example 1 was followed. […] Dosing was discontinued to observe tumor regrowth, then restarted on the same dosing schedule on day 56. […] This activity was maintained for 25 days on treatment at either 120 mg/kg Q2D or 300 mg/kg QW. When dosing was discontinued, tumor stasis was maintained for 10-20 days, but eventually all of the tumors regrew. Regrowth was allowed to proceed for 2-3 weeks, until some individual tumors exceeded 1600 mm^3, then therapy was restarted. Strikingly, all of the retreated tumors regressed, decreasing in size by 27-66% in the subsequent 35 days.

[8] = system: HN3067 primary human HNSCC tissues; assay: Patient-derived xenograft model of HNSCC: HN3067; format: in vivo, human (in BALB/C nude mice)
Text: Example 6: Efficacy studies in patient-derived xenograft models of HNSCC. The general procedure outline in Example 1 was followed. […] Dosing was discontinued to observe tumor regrowth.

[9] = system: HNSCC patient-derived xenograft models exhibiting CCND1 amplification; assay: Efficacy studies in patient-derived xenograft models of HNSCC (Example 14); format: in vivo, human (in BALB/C nude mice); settings: 300-350 mg/kg QW PO
Text: Example 14: Efficacy studies in patient-derived xenograft models of HNSCC. The general procedure outline in Example 1 was followed.

A375 LacZ = assay: Models of clinical B-Raf and MEK inhibitor resistance, CellTiter-Glo 72 hours: A375 LacZ; format: cell-based; settings: Homo sapiens, A-375
Method: (§5) Example 11: Efficacy studies in models of clinical B-Raf and MEK inhibitor resistance. Human melanoma cell lines were obtained from ATCC or DSMZ (e.g., A375, MM383 BRAF V600E and MM127 NRAS Q61R). A375 cells were engineered to overexpress LacZ, BRAF V600E (BRAF V600E amp), or the NRAS mutant NRAS Q61R. The cell lines were grown to confluency, washed with Tumor Cell Media (DMEM+10% FBS or IMDM+20% FBS), and plated in 90 μL Tumor Cell Media at 5,000-10,000 cells/well. […] Plates were incubated for 72 hours at 37° C. and 5% CO2. A volume of 100 μL of CellTiter-Glo® reagent was added to each well and plates were mixed for 2 minutes on an orbital shaker. The plates were allowed to stand at room temperature for 20 minutes before measuring the luminescent signal of each well.

A375 NRAS Q61R = assay: Models of clinical B-Raf and MEK inhibitor resistance, CellTiter-Glo 72 hours: A375 NRAS Q61R; format: cell-based; settings: Homo sapiens, A-375
Method: as §5

[10] = system: A375 V600E amp (BRAF V600E amp); assay: Models of clinical B-Raf and MEK inhibitor resistance, CellTiter-Glo 72 hours: A375 V600E amp; format: cell-based; settings: Homo sapiens, A-375
Method: as §5, with “Human” for “Example 11: Efficacy studies in models of clinical B-Raf and MEK inhibitor resistance. Human”

Structure (SMILES)	Tumor response (tumor volume) [1]	Tumor response (tumor volume) [2]	Tumor response (tumor volume) [3]	Tumor response (tumor volume) [4]	Animals with tumor regression [5]	Tumor response (tumor volume) [6]	Tumor response when treatment was initiated ([7]; 120 mg/kg Q2D or 300 mg/kg QW, maintained for 25 days)	Time tumor stasis was maintained after dosing was discontinued ([7]; after 25 days on treatment) [days]	Decrease in size of retreated tumors ([7]; therapy restarted on day 56, subsequent 35 days)	Tumor response (tumor volume) ([8]; all six animals, 120 mg/kg Q2D or 300 mg/kg QW, 40 days)	Animals with no evidence of remaining viable tumor ([8]; sixty days after dosing was discontinued)	Models responsive to treatment [9]	IC50 (A375 LacZ) [nM]	IC50 (A375 NRAS Q61R) [nM]	IC50 [10] [nM]
O=C1Nc2cc3[nH]nc(-c4ccncc4)c3cc2CN1Cc1ccccc1 [KO-947]	tumor regression	only modest inhibition of tumor growth	tumor regression was initially seen on a weekly schedule, with some regrowth late in the experiment resulting ultimately in tumor stasis	only modest inhibition of tumor growth	5 of 6	only modest inhibition of tumor growth	regression and tumor stasis	10 to 20	27-66%	robust tumor regression	4 of 6	Four out of six	–	–	–
CC(=O)Nc1cccc(-n2c(=O)n(C3CC3)c(=O)c3c(Nc4ccc(I)cc4F)n(C)c(=O)c(C)c32)c1 [Trametinib]	–	–	–	–	–	–	–	–	–	–	–	–	7	77	300
CCCS(=O)(=O)Nc1ccc(F)c(C(=O)c2c[nH]c3ncc(-c4ccc(Cl)cc4)cc23)c1F [Vemurafenib]	–	–	–	–	–	–	–	–	–	–	–	–	4200	> 10000	> 10000
